Publication PMC7143549, “Anticancer Activities of Meroterpenoids Isolated from the Brown Alga Cystoseira usneoides against the Human Colon Cancer Cells HT-29” (Foods, 2020)
≈ marks a conversion by molar mass, not a printed value.

Key:
[1] = tested on: HT-29 human colon carcinoma cells; assay: Sulforhodamine B (SRB) cell viability assay, HT-29; format: cell-based; conditions: for IC50: Homo sapiens, HT-29, 72 h; for IC50 / IC50 HT-29: colon cancer cells, 72 h of treatment, SRB, mean ± SE of three experiments; for Selectivity Index (SI): IC50 for normal cells CCD 841 CoN / IC50 for cancer cells HT-29
Experimental: (§1) Cell viability was quantified using the Sulforhodamine B assay described by Skehan et al.. Cells were plated with a density of 5 × 10^3 (HT-29) and 1 × 10^4 (CCD 841 CoN) cells/well and allowed to attach at 37 °C in an atmosphere with 5% CO2. After 24 h, the AMTs dissolved in DMSO were added to the cells (final concentrations of 10, 20, 30, and 50 µg/mL and less than 0.05% of DMSO) and the plates were incubated for 72 h. Then, the cells were fixed by adding 50 μL of TCA (50%) to each well and the plates were maintained for 1 h at 4 °C. The plates were washed five times with deionized water, air-dried, and stained for 30 min at room temperature with 100 μL of 0.4% (w/v) SRB prepared in 1% (v/v) acetic acid. The plates were rinsed quickly five times with 1% acetic acid to remove unbound dye, followed by air-drying. The bound dye was solubilized in 2 mM Tris base (100 μL/well) for 5 min. Optical densities were read on a microplate reader (Spectrophotometer LabsystemsMultiskan EX, λ 492 nm). Three independent assays were conducted, each one in duplicate. A standard curve was constructed for each experiment and used for converting the measured optical density values into numbers of viable cells/well. The inhibition rate was used to evaluate the cell viability and its algorithm was the following formula: ((ODcontrol − ODtreatment)/ODcontrol) × 100; OD, optical density. The OD492 for control cells was taken as 100% viability. The half maximal inhibitory concentration (IC50) was calculated. The selectivity index (SI) of each compound was calculated as IC50 of the compound against the CCD 841 CoN normal cell line/IC50 of the same compound against the HT-29 cancer cell line.

p-AKT in HT-29 cells = assay: Western blot of phosphorylated AKT; format: cell-based, human; conditions: 24 h; 10 and 20 μg/mL for 1, 2, 5, 6, 7, 8; 30 and 60 μg/mL for 3 and 4
Experimental: Cells were cultured to 80% confluence at 37 °C. After 24 h of treatment with the compounds (10 and 20 µg/mL for compounds 1, 2, 5, 6, 7, and 8, and 30 and 60 µg/mL for compounds 3 and 4), HT-29 cells were rinsed twice with ice-cold PBS, and then lysed immediately in lysis buffer (250 mM NaCl, 50 mM Tris (pH 7.5), 0.5 mM EDTA, 5 mM EGTA, 8 mM MgCl2, 1 mM PMSF, 0.01 mg/mL pepstatin A, 0.01 mg/mL leupeptin, 0.01 mg/mL aprotinin, 1% Triton X-100). After centrifugation at 12,000 g for 3 min at 4°C to separate the cellular debris, the supernatant was collected and stored at −80°C until use. The protein concentrations were determined using Bio-Rad Protein Assay (BioRad, Richmond, CA, USA), according to the manufacturer’s instructions.
Equal protein content (50 μg) samples of cell lysates were separated on 10% SDS–polyacrylamide gel and transferred to polyvinylidene difluoride membranes (Hybond-P, Amershan Biosciences, Little Chalfont, UK). The membranes were blocked with 5% (w/v) non-fat dry milk in Tris-buffered saline containing 0.1% Tween-20 buffer (pH 7.4) (TBST) for 1 h at room temperature and incubated with agitation with specific antibodies: anti-pERK1/2 (Cell Signaling; 1:1000), anti-pJNK (Cell Signaling; 1:1000), anti-pAKT (Cell Signaling; 1:1000), anti-β-actin (Sigma-Aldrich; 1:500). Membranes were incubated overnight at 4°C with gentle shaking. The secondary antibody was a peroxidase-conjugated goat anti-mouse or -rabbit antibody (1:10,000; DakoCytomation, Carpinteria, CA, USA). After washing the membrane three times in TBST buffer (10 min), the signals were detected using an enhanced chemiluminescence light-detecting kit (Super-Signal West Pico Chemiluminescent Substrate, Pierce, IL, USA), according to the manufacturer’s instructions and exposed to an X-ray film (GE Healthcare Ltd., Amersham, UK). The protein band densities were analyzed and quantified with a Scientific Imaging Systems (Biophotonics ImageJ Analysis Software, National Institute of Mental Health, Bethesda, MD, USA). β-actin was used to confirm the equal loading and transfer of proteins.

HT-29 colon cancer cells = assay: Annexin V-FITC/PI flow cytometry apoptosis induction assay; format: cell-based, human; conditions: 24 h; for necrosis (dead cells): 30 μg/mL
Experimental: Quantitative assessment of apoptosis was performed by flow cytometry using an Annexin V-FITC Apoptosis Detection Kit. Briefly, 1 × 10^6 HT-29 cells were seeded per well in six-well plates and incubated for 24 h, followed by the addition of the AMTs dissolved in DMSO (final concentrations of 10, 20, and 30 µg/mL for compounds 1, 2, 5, 6, 7, and 8, and 30, 60, and 90 µg/mL for compounds 3 and 4, and less than 0.05% DMSO) and incubation for 24 h. Curcumin (final concentrations of 50 and 75 μM) was used as positive control. The cells were then washed, harvested with trypsin, and centrifuged at 1500 rpm (5 min, 25 °C). The pellet was resuspended in 195 µL of 1 × Annexin buffer and then stained with 5 μL of Annexin V-FITC and 10 μL of PI for 10 min at room temperature, in the dark. To this mixture 200 μL of 1 × Annexin buffer was added before analysis using a Cytomics FC500 flow cytometer (Beckman Coulter, Indianapolis, IN, USA). Following a gating strategy, flow cytometry plots of size (FS) and complexity (SS) of the HT-29 cells were previously established for the elaboration of a measurement protocol. The normal healthy cells, early apoptosis, late apoptosis, and necrotic populations were represented by annexin V-negative/PI-negative population, annexin V-positive/PI-negative, annexin V-positive/PI-positive and annexin-negative/PI-positive cells, respectively. A total of 10,000 cellular events in each sample were analyzed using DML program.

[2] = tested on: normal human colonic epithelial cells CCD 841 CoN; assay: Sulforhodamine B (SRB) cell viability assay, CCD 841 CoN; format: cell-based; conditions: normal colon cells, 72 h of treatment, mean ± SE of three experiments, read-out: IC50 CCD841 CoN
Experimental: as §1

SMILES | IC50 [1] | Selectivity Index (SI) [1] | expression of p-AKT protein vs control (p-AKT in HT-29 cells) | early apoptotic cells (HT-29 colon cancer cells; 30 μg/mL (Figure 3B)) | late apoptotic cells (HT-29 colon cancer cells; 30 μg/mL (Figure 3B)) | viability at 30 µg/mL (HT-29 colon cancer cells; Homo sapiens, HT-29, 30 μg/mL (Figure 3B), read-out: viable cells) | IC50 [2] | induction of apoptosis or death of HT-29 cells (HT-29 colon cancer cells; 4 tested at 30-90 μg/mL, 7 at 10-30 μg/mL) | IC50 HT-29 [1] | early apoptotic cells (Annexin V+PI-) (HT-29 colon cancer cells; 90 μg/mL) | late apoptotic cells (Annexin V+PI+) (HT-29 colon cancer cells; 90 μg/mL) | total percentage of apoptotic cells (HT-29 colon cancer cells; 90 μg/mL) | necrosis (dead cells) (HT-29 colon cancer cells)
COc1c(C)cc(O)cc1C/C=C(\C)CC(=O)/C=C(\C)CCCC(C)(O)C(=O)/C=C/C(C)(C)O (stereo not shown) [Compound 2, 11-hydroxy-1′-O-methylamentadione] | 9.14 ± 0.23 mg/L (≈ 19.3 µM) | 2.34 | significantly downregulated | 1.94% | 12.94% | 57.7% | 21.4 ± 2.5 mg/L (≈ 45.3 µM) | – | – | – | – | – | –
COc1c(C)cc(O)cc1/C=C/C(C)(O)CC(=O)/C=C(/C)CCCC(C)C(=O)/C=C/C(C)(C)O (stereo not shown) [Compound 7, cystodione A] | 14 ± 1.33 mg/L (≈ 29.6 µM) | >3.57 | significantly downregulated | – | – | – | > 50 mg/L | did not induce neither apoptosis nor death | – | – | – | – | –
COc1c(C)cc(O)cc1C/C=C(\C)CC(=O)/C=C(\C)CCCC(C)=O [Compound 3, cystomexicone B] | 36.9 mg/L (≈ 103 µM) | >1.45 | significantly downregulated | – | – | – | > 50 mg/L | – | 34.34 ± 1.81 mg/L (≈ 95.8 µM) | 4.47% | 52.12% | 56.6% | –
COc1c(C)cc(O)cc1C/C=C(\C)CC(=O)/C=C(/C)CCCC(C)(O)C(=O)/C=C/C(C)(C)O (stereo not shown) [Compound 1, usneoidone Z] | 8.81 ± 1.55 mg/L (≈ 18.6 µM) | 5.26 | significantly downregulated | – | – | – | 46.4 ± 3.87 mg/L (≈ 98.2 µM) | – | – | – | – | – | 31.22%
COc1c(C)cc(O)cc1/C=C/C(C)(O)CC(=O)/C=C(\C)CCCC(C)C(=O)/C=C/C(C)(C)O (stereo not shown) [Compound 8, cystodione B] | 9.14 mg/L (≈ 19.3 µM) | 3.51 | significantly downregulated | – | – | – | 31.9 ± 7.51 mg/L (≈ 67.5 µM) | – | 9.08 ± 1.04 mg/L (≈ 19.2 µM) | – | – | – | 20.12%
